The values that follow come from publication PMC3124622 (Biochemical and biophysical research communications, 2011).

For assay [1], the system named is TGT from rabbit reticulocytes. Particulars: cited from earlier work.
The target in assay [2] is E. coli TGT V217G (Escherichia coli, UniProt P0A847, V217G). In words: Pteridine inhibition of guanine incorporation. The class given is biochemical. Conditions: V217G mutant; vs guanine; 20 μM tRNA, pH 7.3.
In assay [3] the target is E. coli TGT C145V/T146V/V217G (Escherichia coli, UniProt P0A847, C145V/T146V/V217G). In words: Pteridine inhibition of guanine incorporation. The class given is biochemical. Conditions: C145V/T146V/V217G (triple) mutant; vs guanine; 20 μM tRNA, pH 7.3.
The target in assay [4] is E. coli TGT C145V/T146V (Escherichia coli, UniProt P0A847, C145V/T146V). As to the kind of experiment: Pteridine inhibition of guanine incorporation. The class given is biochemical. Particulars: C145V/T146V mutant; vs guanine; 20 μM tRNA, pH 7.3.
Assay [5] concerns the target E. coli TGT Wild-Type (Escherichia coli, UniProt P0A847). As to the kind of experiment: Pteridine inhibition of guanine incorporation. In kind it is biochemical.
Assay [6] concerns Wild-type and Mutant E. coli TGTs. In words: Pteridine inhibition of wild-type and mutant E. coli TGTs. Particulars: the mutant enzymes. In kind it is biochemical.
In assay [7] the target is E. coli TGT C145V/T146V/P147N/V217G (Escherichia coli, UniProt P0A847, C145V/P147N/T146V/V217G). In words: Pteridine inhibition of guanine incorporation. The class given is biochemical. Conditions: C145V/T146V/P147N/V217G (quadruple) mutant; vs guanine; 20 μM tRNA, pH 7.3.
In assay [8] the target is T1, human TGT (Homo sapiens, UniProt Q9BXR0). Conditions: queuine as substrate, ref Chen et al. (2011) Nuc. Acids Res. 39, 2834; cited from earlier work.
T1 sequence (Q9BXR0 whole entry): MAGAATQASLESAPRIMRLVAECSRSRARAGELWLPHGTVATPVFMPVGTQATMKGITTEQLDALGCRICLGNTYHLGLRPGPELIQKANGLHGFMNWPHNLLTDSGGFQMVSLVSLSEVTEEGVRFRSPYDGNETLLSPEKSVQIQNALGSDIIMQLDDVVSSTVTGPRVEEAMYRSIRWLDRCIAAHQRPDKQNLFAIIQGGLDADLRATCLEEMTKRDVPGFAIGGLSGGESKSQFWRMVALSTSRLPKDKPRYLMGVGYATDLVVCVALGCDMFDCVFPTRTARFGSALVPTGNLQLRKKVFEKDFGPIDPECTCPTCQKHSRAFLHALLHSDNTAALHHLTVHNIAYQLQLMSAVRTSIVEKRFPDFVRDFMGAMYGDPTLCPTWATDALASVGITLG
T1 sequence (Q9H974 whole entry partner): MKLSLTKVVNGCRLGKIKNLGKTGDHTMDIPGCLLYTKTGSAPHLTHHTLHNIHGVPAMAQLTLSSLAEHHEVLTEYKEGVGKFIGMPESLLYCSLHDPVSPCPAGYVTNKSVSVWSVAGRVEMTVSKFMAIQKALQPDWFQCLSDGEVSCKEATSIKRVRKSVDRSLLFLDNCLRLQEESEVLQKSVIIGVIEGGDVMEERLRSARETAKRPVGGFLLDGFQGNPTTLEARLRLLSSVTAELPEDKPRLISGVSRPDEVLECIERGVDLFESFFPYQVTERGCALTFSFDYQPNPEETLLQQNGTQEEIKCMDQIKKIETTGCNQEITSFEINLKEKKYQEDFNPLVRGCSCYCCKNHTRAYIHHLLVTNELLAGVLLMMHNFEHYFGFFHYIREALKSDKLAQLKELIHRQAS
In assay [9] the test system is E. coli TGT (C145V/T146V/V217G). In words: Queuine incorporation by the E. coli TGT triple mutant. The class given is biochemical. Conditions: queuine concentrations up to 50 μM (data not shown).
Assay [10] has as its target T1, human TGT. As to the kind of experiment: Biopterin inhibition of human TGT. The class given is biochemical.
Assay [11] addresses TGT from mouse fibroblasts. Particulars: cited from earlier work.

Entries after “also recorded” stand apart in the source; their conditions may differ. Where two headings read alike, the source gives them in different places.

Broadly, the inhibition is the percentage by which the read-out fell short of the control. A word on the Ki: it is the equilibrium dissociation constant of an inhibitor or competing ligand from its target. One may read the Km as the substrate concentration at which the rate is half of its maximum.

On to `Nc1nc2nccnc2c(=O)[nH]1` [Pterin, pterin], for which, in [1] (0.48 μM pterin, rabbit reticulocyte TGT), the inhibition was 44%. The Ki is 900 nM in assay [2]; 1300 nM in assay [3]; 2200 nM in assay [4]; 420 nM in [5] (wild-type enzyme, vs guanine, 20 μM tRNA, pH 7.3); 37000 nM in assay [7]. In addition, the “inhibition (in words)” value in assay [5] (wild-type enzyme) and in assay [6] was “inhibited” in each case.

For `Nc1nc2[nH]cc(CN[C@H]3C=C[C@H](O)[C@@H]3O)c2c(=O)[nH]1` [Queuine, queuine], in [8], the Km was 0.26 µM and the kcat was 8.2 (±0.2) 10^−3•s^−1. The “incorporation of queuine as a substrate” value in [9] is recorded as “does not recognize; also recorded: no incorporation”.

In the case of biopterin, the inhibition in [1] (20 μM biopterin, rabbit reticulocyte enzyme) is given as 39%. Moreover, in assay [10], the “Ki relative to the KM for queuine” value is given as “ca. 30 fold”. Besides, in [10] (with respect to queuine, Dixon and Cornish-Bowden plots), the mode of inhibition entry is “competitive inhibitor”. In addition, the “inhibition of wild-type TGT” value in assay [5] (biopterin concentrations up to 3 mM) is given as “no detectable inhibition”. Besides, the “inhibition (in words)” value in assay [6] is “inhibited”. Also, in assay [11], the Ki was ~1000 nM.
